From the supplement of paper PMC3974653
Structures can show the parent of a compound that is named as a salt.

System: MTT (mouse pheochromocytoma)
Experiment: IC50 of cell viability (ATP content)
Conditions: (24 or 48 h)
Procedure, shortened: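 Cells of the MTT mouse pheochromocytoma line, 5 µl per well at 200,000 cells/ml, were grown overnight at 37°C, 5% CO2 in white 1536-well plates with DMEM, 5% FBS and 1% horse serum. Pintool transfer then delivered 23 nl of library compound in DMSO, giving 8 final concentrations from 0.5 nM to 46 µM, for an exposure of 24 or 48 hrs. Luminescence from CellTiter-Glo was read after 15 minutes and referenced to positive-control wells (100%) and DMSO wells (0%). IC50 was calculated with a four-parameter logistic fit.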

Structure (SMILES)	IC50 of cell viability
CCCCCCCCCC(=O)O[C@H]1CC[C@H]2[C@@H]3CCC4=CC(=O)CC[C@]4(C)[C@H]3CC[C@]12C [TESTOSTERONE DECANOATE]	> 46 µM
CC(C)CCC(=O)OC1CCC2C3CCC4=CC(=O)CC[C@]4(C)C3CC[C@]12C (stereo not given in full) [TESTOSTERONE ISOCAPROATE]	> 46 µM
CC(C)=CC1C(C(=O)OCN2C(=O)\C3=C(\CCCC3)C2=O)C1(C)C (stereo not given) [TETRAMETHRINUM]	> 46 µM
CN(C)C(=S)SC(=S)N(C)C [TETRAMETHYLTHIURAM MONOSULFIDE]	> 46 µM
CNc1c2c(nn1C)CCCC2 [TETRIDAMINUM]	> 46 µM
OC\1=C(O)\C(=O)\C(=C(O)/C1=O)O [TETROQUINONE]	> 46 µM
COC1=CC=C2[C@H]3Cc4ccc(OC)c5c4[C@@]2(CCN3C)[C@H]1O5 [THEBAINE]	> 46 µM
C[S+](=O)([O-])c1ccc([C@@H](O)[C@@H](COC(=O)CN)NC(=O)C(Cl)Cl)cc1 [THIAMPHENICOL AMINOACETATE HYDROCHLORIDE]	> 46 µM
[Na+].CCCC(C)C1(CC=C)C(=O)N\C(=N/C1=O)[S-] (stereo not given) [THIAMYLAL SODIUM]	> 46 µM
S=P(N1CC1)(N1CC1)N1CC1 [THIO-TEPA]	> 46 µM
CC(=O)Nc1ccc(/C=N/NC(N)=S)cc1 [THIOACETAZONUM]	> 46 µM
NC(=O)CCCCC1CCSS1 (stereo not given) [THIOCTIC ACID AMIDE]	> 46 µM
OCC(O)CS (stereo not given) [THIOGLYCEROL]	> 46 µM
NC/1=N/C2=C([NH]C=N2)C(=S)N1 [THIOGUANINE]	> 46 µM
CCCC(C)C1(CC)C(=O)NC(=S)NC1=O (stereo not given) [THIOPENTAL SODIUM]	> 46 µM
CC(O)C(N)C(=O)O (stereo not given) [THREONINE]	> 46 µM
Clc1ccccc1CN1CCc2sccc2C1 [TICLOPIDINE]	> 46 µM
O=P([O-])(O)C(Sc1ccc(Cl)cc1)P(=O)([O-])O [TILUDRONATE DISODIUM]	> 46 µM

Structure (SMILES)	IC50 of cell viability
COC1C\C(C[N+](C)(C)C1)=C(/C2=CC=CS2)C3=CC=CS3 (stereo not given) [TIMEPIDIUM BROMIDE]	> 46 µM
O=C(O)[C@@H]1CSCN1 [TIMONACICUM]	> 46 µM
Clc1ccc(C(Cn2ccnc2)OCc2ccsc2Cl)c(Cl)c1 (stereo not given) [TIOCONAZOLE]	> 46 µM
CC(S)C(=O)NCC(=O)O (stereo not given) [TIOPRONIN]	> 46 µM
CN/C(=N/C#N)NCCSCc1csc(N=C(N)N)n1 [TIOTIDINE]	> 46 µM
O=c1oc2cc(O)ccc2s1 [TIOXOLONE]	> 46 µM
CN1CCC\C(C1)=C(/C2=CC=CS2)C3=CC=CS3 [TIPEPIDINE HIBENZATE]	> 46 µM
CCC1\C(=N/N=C(C2=CC(=C(OC)C=C2)OC)\C3=C1C=C(OC)C(=C3)OC)C (stereo not given) [TOFISOPAM]	> 46 µM
Cc1ccc(C(=O)c2cc(O)c(O)c([N+](=O)[O-])c2)cc1 [TOLCAPONE]	> 46 µM
Cc1c(Cl)cccc1Nc1ccccc1C(=O)O [TOLFENAMIC ACID]	> 46 µM
CC1CC[C@@]2(NC1)OC1CC3C4CC[C@@H]5CC(O)CC[C@@]5(C)C4CC[C@]3(C)C1C2C.Cl (stereo not given in full) [TOMATIDINE HYDROCHLORIDE]	> 46 µM
CC1(C)OC2CO[C@]3(CO[S+](N)(=O)[O-])OC(C)(C)OC3C2O1 (stereo not given in full) [TOPIRAMATE]	> 46 µM
Cc1ccc([S+](=O)([O-])NC(=O)NC(C)Cc2ccccc2)cc1 (stereo not given) [TOSIFENUM]	> 46 µM
O=C(O)/C=C(/CC(=O)O)C(=O)O [TRANS-ACONITIC ACID]	> 46 µM
[H][C@]1(\C=C(/Cl)Cl)[C@]([H])(C(=O)OCC2=C(F)C(F)=CC(F)=C2F)C1(C)C [TRANSFLUTHRIN]	> 46 µM
CC(=O)O[C@H]1CC[C@H]2[C@@H]3CCC4=CC(=O)CCC4=C3C=C[C@]12C [TRENBOLONE ACETATE]	> 46 µM
C[S+](=O)([O-])OCC(O)C(O)CO[S+](C)(=O)[O-] (stereo not given) [TREOSULFAN]	> 46 µM

Next, values leading:

IC50 of cell viability	Structure (SMILES)
> 46 µM	CC(C)(C)c1ccc(C(O)CCCN2CCC(C(O)(c3ccccc3)c3ccccc3)CC2)cc1 (stereo not given) [TERFENADINE]
> 46 µM	NCCCC[C@H](NC(=O)[C@@H]1CCCN1C(=O)[C@@H]1CSSC[C@H](NC(=O)CNC(=O)CNC(=O)CN)C(=O)N[C@@H](Cc2ccc(O)cc2)C(=O)N[C@@H](Cc2ccccc2)C(=O)N[C@@H](CCC(N)=O)C(=O)N[C@@H](CC(N)=O)C(=O)N1)C(=O)NCC(N)=O [TERLIPRESSIN]
> 46 µM	C/C(=C(/CCO)SS/C(CCO)=C(\C)N(C=O)Cc1cnc(C)nc1N)N(C=O)Cc1cnc(C)nc1N [THIAMINE DISULFIDE]
> 46 µM	CSc1ccc2c(c1)N(CCC1CCCCN1C)c1ccccc1S2 (stereo not given) [THIORIDAZINE]
> 46 µM	COc1ccc(CN(CCN(C)C)c2ncccn2)cc1.Cl [THONZYLAMINE HYDROCHLORIDE]
> 46 µM	Cc1cc(OI)c(C(C)C)cc1-c1cc(C(C)C)c(OI)cc1C [THYMOL IODIDE]
> 46 µM	CC(C)C(NC(=O)C(CC(=O)O)NC(=O)C(CCCCN)NC(=O)C(N)CCCNC(=N)N)C(=O)NC(Cc1ccc(O)cc1)C(=O)O (stereo not given) [THYMOPENTINUM]
> 46 µM	C=C[C@]1(C)C[C@@H](OC(=O)CSCCN(CC)CC)[C@]2(C)C(C)CC[C@]3(CCC(=O)[C@H]32)[C@@H](C)[C@@H]1O (stereo not given in full) [TIAMULIN]
> 46 µM	CN1c2ccccc2C(NCCCCCCC(=O)[O][Na])c2ccc(Cl)cc2[S+]1(=O)[O-] (stereo not given) [TIANEPTINUM]
> 46 µM	C#C[C@]1(O)CC[C@H]2[C@H]3[C@H](CC[C@@]21C)C1=C(CC(=O)CC1)C[C@@H]3C [TIBOLONE]
> 46 µM	CCN(CC)CCSC(=O)C(c1ccccc1)c1ccccc1 [TIFENAMILUM]
> 46 µM	CCC1OC(=O)C[C@H](O)C(C)[C@@H](O[C@@H]2OC(C)C(O)[C@H](N(C)C)C2O)C(CCN2CC(C)CC(C)C2)CC(C)C(=O)/C=C/C(C)=C\[C@@H]1COC1OC(C)C(O)C(OC)C1OC (stereo not given in full) [TILMICOSIN]
> 46 µM	CCN(CC)CCOc1ccc2c(c1)C(=O)c1cc(OCCN(CC)CC)ccc1-2 [TILORONE]
> 46 µM	C[N+]1(C)[C@@H]2CC(OC(=O)C(O)(c3cccs3)c3cccs3)C[C@H]1[C@@H]1O[C@@H]12 (stereo not given in full) [TIOTROPIUM BROMIDE MONOHYDRATE]
> 46 µM	CCC[C@]1(CCc2ccccc2)CC(O)=C([C@H](CC)c2cccc(N[S+](=O)([O-])c3ccc(C(F)(F)F)cn3)c2)C(=O)O1 [TIPRANAVIR]
> 46 µM	COC1=C(OC)C=C(CNCC(O)COC2=CC=C3NC(=O)\C=C/C3=C2)C=C1 (stereo not given) [TOBORINONE]
> 46 µM	Cc1c(C)c2c(c(C)c1OC(=O)c1cccnc1)CC[C@@](C)(CCC[C@H](C)CCC[C@H](C)CCCC(C)C)O2 [TOCOPHEROL NICOTINATE]
> 46 µM	Cc1c(C)c2c(c(C)c1OC(=O)CCC(=O)O)CC[C@@](C)(CCC[C@H](C)CCC[C@H](C)CCCC(C)C)O2 [TOCOPHERYL SUCCINATE]
> 46 µM	CC1=C(/C=C/C(C)=C/C=C/C(C)=C/C(=O)Oc2c(C)c(C)c3c(c2C)CC[C@@](C)(CCC[C@H](C)CCC[C@H](C)CCCC(C)C)O3)C(C)(C)CCC1 [TOCORETINATE]
> 46 µM	Cc1ccccc1OCC(O)CNCCOc1ccc(C(N)=O)cc1 (stereo not given) [TOLAMOLOLUM]
> 46 µM	Cc1ccc([S+](=O)([O-])NC(=O)NN2CCCCCC2)cc1 [TOLAZAMIDE]
> 46 µM	CCCCNC(=O)N[S+](=O)([O-])c1ccc(C)cc1 [TOLBUTAMIDE]
> 46 µM	Cc1cccc(N(C)C(=S)Oc2ccc3c(c2)CCC3)c1 [TOLINDATE]
> 46 µM	Cc1ccc(S(=O)(=O)NC(=O)NC2CCCC2)cc1 [TOLPENTAMIDUM]
> 46 µM	Cc1ccc(C(=O)C(C)CN2CCCCC2)cc1.Cl (stereo not given) [TOLPERISONE HYDROCHLORIDE]
> 46 µM	Cc1ccccc1C(=O)Nc1ccc(C(=O)N2CCCC(O)c3cc(Cl)ccc32)c(C)c1 (stereo not given) [TOLVAPTAN]
> 46 µM	NC1CCN(c2nc3c(cc2F)c(=O)c(C(=O)O)cn3-c2ccc(F)cc2F)C1 (stereo not given) [TOSUFLOXACIN TOSILATE]
> 46 µM	CCOC(=O)C(CCc1ccccc1)NC(C)C(=O)N1C(C(=O)O)CC2CCCCC21 (stereo not given) [TRANDOLAPRIL]
> 46 µM	CCOc1cc(OCC)c(C(=O)CCC(=O)O)cc1OCC [TREPIBUTONE]
> 46 µM	CC1=C(/C=C/C(C)=C/C=C/C(C)=C/C(=O)O)C(C)(C)CCC1 [TRETINOIN]
